In ChEMBL document CHEMBL4304809 (ACS Med Chem Lett, 2019):
In brackets after ≈: the same amount, converted by molar mass. Activity calls are given as the source filed them. The calls are words filed in the database; no cut-off is given here.

What was measured:
[1] = biological target: T1, Serine/threonine-protein kinase D1 (Homo sapiens, UniProt Q15139); assay: Inhibition of full length GST-tagged human PRKD1 expressed in Baculovirus expression system using ATP as substrate incubated for 1 to 2 hrs by transcreener ADP assay based fluorescence correlation spectroscopic analysis
T1 sequence (Q15139 whole entry): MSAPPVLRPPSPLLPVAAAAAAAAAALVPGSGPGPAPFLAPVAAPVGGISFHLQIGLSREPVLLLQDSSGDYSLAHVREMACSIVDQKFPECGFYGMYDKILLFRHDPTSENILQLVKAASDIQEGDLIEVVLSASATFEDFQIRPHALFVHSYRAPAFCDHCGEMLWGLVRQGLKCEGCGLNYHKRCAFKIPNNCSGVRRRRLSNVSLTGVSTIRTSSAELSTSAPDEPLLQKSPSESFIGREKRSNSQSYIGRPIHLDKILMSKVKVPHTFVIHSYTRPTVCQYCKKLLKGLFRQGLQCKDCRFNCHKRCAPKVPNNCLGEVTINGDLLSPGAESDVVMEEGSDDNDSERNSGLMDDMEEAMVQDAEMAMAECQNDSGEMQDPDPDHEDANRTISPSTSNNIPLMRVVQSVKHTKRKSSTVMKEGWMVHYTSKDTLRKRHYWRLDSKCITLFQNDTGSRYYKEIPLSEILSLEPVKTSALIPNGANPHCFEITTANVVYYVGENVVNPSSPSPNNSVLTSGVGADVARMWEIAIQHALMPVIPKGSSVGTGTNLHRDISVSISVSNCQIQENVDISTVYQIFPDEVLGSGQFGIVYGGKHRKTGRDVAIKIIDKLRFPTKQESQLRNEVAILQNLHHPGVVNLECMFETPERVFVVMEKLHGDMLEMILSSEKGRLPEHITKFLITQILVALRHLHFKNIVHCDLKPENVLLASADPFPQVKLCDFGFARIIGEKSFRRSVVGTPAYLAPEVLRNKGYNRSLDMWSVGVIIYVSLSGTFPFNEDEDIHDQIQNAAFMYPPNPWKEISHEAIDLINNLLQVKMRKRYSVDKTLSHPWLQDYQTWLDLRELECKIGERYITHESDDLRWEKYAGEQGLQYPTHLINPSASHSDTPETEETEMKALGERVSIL

[2] = biological target: Mitogen-activated protein kinase kinase kinase 14 (Homo sapiens, UniProt Q99558); assay: Inhibition of NIK (unknown origin) using ATP as substrate by transcreener ADP assay based fluorescence correlation spectroscopic analysis; type: single protein
[3] = biological target: Aurora kinase B (Homo sapiens) (UniProt Q96GD4); assay: Inhibition of full length His-tagged recombinant human AURKB expressed in Baculovirus expression system at 0.1 uM using Fluorescein-PKC as substrate incubated for 1 hr by TR-FRET assay relative to control
[4] = Kinetic solubility of the compound; type: physicochemical; conditions: read-out: Kinetic_solubility
[5] = biological target: Misshapen-like kinase 1 (Homo sapiens) (UniProt Q8N4C8); assay: Inhibition of recombinant GST-tagged human MINK1 catalytic domain (1 to 320 residues) expressed in Baculovirus expression system at 0.1 uM using Fluorescein-PKC as substrate incubated for 1 hr by TR-FRET assay relative to control
[6] = Lipophilicity, log D of the compound at pH 7.4; type: physicochemical; conditions: buffer
[7] = biological target: Mitogen-activated protein kinase kinase kinase kinase 4 (Homo sapiens) (UniProt O95819); assay: Inhibition of recombinant GST-tagged human MAP4K4 catalytic domain (1 to 328 residues) expressed in Baculovirus expression system at 0.1 uM using Fluorescein-PKC as substrate incubated for 1 hr by TR-FRET assay relative to control
[8] = biological target: T2, Serine/threonine-protein kinase D1 (Homo sapiens) (UniProt Q15139); assay: Inhibition of full length GST-tagged recombinant human PRKD1 expressed in Baculovirus expression system at 0.1 uM using Fluorescein-CREBtide as substrate incubated for 1 hr by TR-FRET assay relative to control
T2 sequence (whole entry): T1 sequence (Q15139 whole entry)

[9] = biological target: Serine/threonine-protein kinase PAK 4 (Homo sapiens) (UniProt O96013); assay: Inhibition of recombinant GST-tagged human PAK4 catalytic domain (295 to 591 residues) expressed in Baculovirus expression system at 0.1 uM using Fluorescein-Crosstide as substrate incubated for 1 hr by TR-FRET assay relative to control
[10] = biological target: Tyrosine-protein kinase JAK1 (Homo sapiens) (UniProt P23458); assay: Inhibition of recombinant GST-tagged human JAK1 catalytic domain (866 to 1154 residues) expressed in Baculovirus expression system at 0.1 uM using GFP-STAT1 as substrate incubated for 1 hr by TR-FRET assay relative to control
[11] = biological target: RAC-alpha serine/threonine-protein kinase (Homo sapiens) (UniProt P31749); assay: Inhibition of full length His-tagged recombinant human AKT1 expressed in Baculovirus expression system at 0.1 uM using Fluorescein-Crosstide as substrate incubated for 1 hr by TR-FRET assay relative to control

Sequence of Mitogen-activated protein kinase kinase kinase 14 (Q99558 whole entry): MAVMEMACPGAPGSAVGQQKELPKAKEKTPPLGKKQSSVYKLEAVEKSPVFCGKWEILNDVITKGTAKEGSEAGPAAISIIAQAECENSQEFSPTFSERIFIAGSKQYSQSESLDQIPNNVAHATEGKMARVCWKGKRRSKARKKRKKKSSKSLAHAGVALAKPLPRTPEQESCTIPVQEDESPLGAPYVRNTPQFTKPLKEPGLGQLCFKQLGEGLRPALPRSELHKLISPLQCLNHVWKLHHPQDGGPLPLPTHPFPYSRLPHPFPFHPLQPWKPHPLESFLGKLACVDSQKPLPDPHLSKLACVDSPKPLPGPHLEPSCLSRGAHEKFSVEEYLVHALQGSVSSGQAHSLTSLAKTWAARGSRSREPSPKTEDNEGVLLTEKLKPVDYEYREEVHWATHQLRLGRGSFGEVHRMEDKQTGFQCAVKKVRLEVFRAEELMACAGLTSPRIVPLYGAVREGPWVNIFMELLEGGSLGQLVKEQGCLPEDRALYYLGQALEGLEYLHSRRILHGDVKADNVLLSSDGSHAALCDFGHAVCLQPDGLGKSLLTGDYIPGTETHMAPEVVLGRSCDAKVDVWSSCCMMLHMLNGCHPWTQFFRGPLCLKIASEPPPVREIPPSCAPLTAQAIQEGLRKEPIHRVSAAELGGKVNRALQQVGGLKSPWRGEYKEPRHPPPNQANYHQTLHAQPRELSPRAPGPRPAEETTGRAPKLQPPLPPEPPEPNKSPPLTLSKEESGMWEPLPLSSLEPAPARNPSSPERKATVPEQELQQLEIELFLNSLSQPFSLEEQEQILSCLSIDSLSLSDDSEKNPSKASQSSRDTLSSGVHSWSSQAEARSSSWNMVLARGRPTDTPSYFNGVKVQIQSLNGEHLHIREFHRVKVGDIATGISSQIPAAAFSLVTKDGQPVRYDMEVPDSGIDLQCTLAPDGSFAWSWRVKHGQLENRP
Sequence of Aurora kinase B (Homo sapiens) (Q96GD4 whole entry): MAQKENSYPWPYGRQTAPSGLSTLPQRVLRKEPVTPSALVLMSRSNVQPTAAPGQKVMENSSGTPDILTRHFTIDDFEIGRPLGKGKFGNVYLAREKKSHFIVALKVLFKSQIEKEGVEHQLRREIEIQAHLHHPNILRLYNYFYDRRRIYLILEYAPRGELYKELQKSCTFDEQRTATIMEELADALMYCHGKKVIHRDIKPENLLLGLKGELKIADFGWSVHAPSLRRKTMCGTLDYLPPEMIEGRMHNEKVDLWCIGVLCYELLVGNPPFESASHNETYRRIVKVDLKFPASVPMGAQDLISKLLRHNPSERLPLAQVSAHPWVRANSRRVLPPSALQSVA
Sequence of Misshapen-like kinase 1 (Homo sapiens) (Q8N4C8 whole entry, looked up, the tested form may be a part): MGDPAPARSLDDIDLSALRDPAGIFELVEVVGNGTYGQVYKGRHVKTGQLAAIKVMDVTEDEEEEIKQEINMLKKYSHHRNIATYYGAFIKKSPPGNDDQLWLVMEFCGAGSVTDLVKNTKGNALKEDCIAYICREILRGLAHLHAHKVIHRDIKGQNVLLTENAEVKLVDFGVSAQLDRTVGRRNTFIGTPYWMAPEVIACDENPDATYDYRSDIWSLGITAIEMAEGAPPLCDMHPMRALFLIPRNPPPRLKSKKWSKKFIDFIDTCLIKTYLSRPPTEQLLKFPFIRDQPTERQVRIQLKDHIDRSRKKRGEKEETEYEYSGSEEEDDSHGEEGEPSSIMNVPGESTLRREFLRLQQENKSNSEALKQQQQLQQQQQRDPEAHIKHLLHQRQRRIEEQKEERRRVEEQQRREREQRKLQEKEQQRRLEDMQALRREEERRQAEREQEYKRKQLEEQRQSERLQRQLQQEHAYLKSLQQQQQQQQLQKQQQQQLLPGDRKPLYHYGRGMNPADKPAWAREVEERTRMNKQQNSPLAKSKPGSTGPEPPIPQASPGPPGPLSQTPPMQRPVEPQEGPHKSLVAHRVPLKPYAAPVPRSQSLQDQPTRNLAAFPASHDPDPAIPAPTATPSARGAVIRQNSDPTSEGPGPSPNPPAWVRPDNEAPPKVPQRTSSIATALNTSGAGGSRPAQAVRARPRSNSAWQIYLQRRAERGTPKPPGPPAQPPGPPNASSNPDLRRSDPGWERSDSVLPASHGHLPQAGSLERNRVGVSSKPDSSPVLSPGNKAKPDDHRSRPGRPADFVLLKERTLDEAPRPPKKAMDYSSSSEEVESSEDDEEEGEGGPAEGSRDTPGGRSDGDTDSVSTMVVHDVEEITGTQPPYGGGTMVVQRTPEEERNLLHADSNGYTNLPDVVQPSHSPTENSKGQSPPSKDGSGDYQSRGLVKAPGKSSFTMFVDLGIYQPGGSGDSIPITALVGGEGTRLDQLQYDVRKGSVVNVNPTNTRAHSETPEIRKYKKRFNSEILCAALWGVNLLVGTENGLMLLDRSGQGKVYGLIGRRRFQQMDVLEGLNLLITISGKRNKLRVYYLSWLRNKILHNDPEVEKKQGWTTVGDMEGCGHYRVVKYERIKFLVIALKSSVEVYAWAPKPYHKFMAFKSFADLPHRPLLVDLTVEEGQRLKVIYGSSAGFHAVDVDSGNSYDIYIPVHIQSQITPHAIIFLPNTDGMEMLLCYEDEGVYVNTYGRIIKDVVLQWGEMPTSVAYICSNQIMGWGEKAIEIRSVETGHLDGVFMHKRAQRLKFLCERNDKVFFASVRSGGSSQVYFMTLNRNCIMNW
Sequence of Mitogen-activated protein kinase kinase kinase kinase 4 (Homo sapiens) (O95819 2-1239 limits assumed): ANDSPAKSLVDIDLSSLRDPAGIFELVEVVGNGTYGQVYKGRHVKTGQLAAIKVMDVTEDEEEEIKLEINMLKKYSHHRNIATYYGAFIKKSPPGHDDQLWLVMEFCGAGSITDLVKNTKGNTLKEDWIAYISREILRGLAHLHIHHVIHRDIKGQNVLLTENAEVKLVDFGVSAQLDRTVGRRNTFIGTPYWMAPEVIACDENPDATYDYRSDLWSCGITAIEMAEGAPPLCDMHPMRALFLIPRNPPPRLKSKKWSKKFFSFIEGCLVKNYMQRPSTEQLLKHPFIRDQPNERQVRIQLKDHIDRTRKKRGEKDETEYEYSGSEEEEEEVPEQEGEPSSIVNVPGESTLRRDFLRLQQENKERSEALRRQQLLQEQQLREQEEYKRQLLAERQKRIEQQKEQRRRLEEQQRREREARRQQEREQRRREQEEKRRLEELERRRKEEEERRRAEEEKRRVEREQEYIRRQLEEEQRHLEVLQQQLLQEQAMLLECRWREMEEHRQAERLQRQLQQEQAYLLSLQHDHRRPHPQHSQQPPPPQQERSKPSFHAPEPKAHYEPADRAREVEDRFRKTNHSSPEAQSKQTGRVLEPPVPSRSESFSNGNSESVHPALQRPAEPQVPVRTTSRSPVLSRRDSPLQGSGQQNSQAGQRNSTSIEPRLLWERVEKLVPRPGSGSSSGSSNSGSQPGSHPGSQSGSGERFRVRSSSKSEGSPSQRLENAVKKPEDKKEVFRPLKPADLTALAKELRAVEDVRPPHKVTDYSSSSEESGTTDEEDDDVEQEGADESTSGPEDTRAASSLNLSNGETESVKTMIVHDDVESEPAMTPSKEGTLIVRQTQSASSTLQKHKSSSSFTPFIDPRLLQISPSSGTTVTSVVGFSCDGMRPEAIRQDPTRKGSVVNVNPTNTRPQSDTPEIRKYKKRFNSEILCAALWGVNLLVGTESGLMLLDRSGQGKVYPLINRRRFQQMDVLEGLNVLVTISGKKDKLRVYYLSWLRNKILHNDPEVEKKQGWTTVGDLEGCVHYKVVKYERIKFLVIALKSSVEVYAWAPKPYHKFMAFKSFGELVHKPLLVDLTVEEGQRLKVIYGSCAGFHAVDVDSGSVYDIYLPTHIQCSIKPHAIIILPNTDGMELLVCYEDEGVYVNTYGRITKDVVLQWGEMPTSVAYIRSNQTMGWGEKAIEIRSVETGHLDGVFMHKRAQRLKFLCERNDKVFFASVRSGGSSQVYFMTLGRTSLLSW
Sequence of Tyrosine-protein kinase JAK1 (Homo sapiens) (P23458 whole entry, the tested form may be a part): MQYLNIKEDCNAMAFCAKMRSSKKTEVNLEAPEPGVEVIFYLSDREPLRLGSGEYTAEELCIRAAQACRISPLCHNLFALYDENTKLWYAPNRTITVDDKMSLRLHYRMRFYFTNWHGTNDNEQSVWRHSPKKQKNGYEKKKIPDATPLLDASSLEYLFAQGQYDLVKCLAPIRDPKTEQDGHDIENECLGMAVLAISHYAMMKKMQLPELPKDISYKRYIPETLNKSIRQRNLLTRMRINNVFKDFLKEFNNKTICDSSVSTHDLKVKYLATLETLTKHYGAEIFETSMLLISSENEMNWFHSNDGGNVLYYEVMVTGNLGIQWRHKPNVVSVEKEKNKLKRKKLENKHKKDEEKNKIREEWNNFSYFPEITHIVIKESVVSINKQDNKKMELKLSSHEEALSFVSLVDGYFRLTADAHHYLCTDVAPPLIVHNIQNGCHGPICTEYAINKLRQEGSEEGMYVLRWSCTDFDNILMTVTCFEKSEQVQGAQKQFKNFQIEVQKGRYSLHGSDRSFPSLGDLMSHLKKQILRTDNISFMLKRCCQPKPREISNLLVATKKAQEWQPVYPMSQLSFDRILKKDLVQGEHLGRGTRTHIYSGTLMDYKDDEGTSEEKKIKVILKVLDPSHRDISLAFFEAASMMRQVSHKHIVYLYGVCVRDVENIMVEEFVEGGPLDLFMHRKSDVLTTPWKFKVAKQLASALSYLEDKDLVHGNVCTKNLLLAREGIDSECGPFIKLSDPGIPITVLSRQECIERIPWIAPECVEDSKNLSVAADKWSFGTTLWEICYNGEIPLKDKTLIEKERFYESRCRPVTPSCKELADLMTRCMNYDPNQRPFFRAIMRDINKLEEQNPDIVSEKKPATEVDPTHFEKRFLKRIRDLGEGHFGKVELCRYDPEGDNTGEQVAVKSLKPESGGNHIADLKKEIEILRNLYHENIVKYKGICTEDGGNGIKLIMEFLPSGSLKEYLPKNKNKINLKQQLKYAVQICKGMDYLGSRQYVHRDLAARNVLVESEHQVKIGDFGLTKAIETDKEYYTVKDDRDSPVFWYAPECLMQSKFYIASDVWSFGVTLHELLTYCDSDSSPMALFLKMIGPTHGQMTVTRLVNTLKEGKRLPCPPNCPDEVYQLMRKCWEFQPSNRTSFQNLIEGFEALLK

A Ki [1] of 25 nM and a Ki [2] of 10 nM were found for `NC(=O)c1cn2c(n1)-c1cc(C#CC3(O)CCCC3)ccc1C1CC2C1` in this work.
In the case of `CNC(=O)c1c(C(N)=O)nc2n1C1CC(C1)c1ccc(C#CC(C)(C)c3ncc(C)o3)cc1-2`, the inhibition [3] is reported as 45%, the Ki [1] is reported as < 0.2 nM and the Ki [2] is reported as > 1250 nM. For the same compound, the solubility kinetic [4] was 13 µM (≈ 5.77 µg/mL), the inhibition [5] was 51% and the logD [6] was 3.7. For the same compound, the inhibition [7] was 57% and the inhibition [8] was “Active”.
For `Cc1cnc([C@](C)(O)C#Cc2ccc3c(c2)-c2nc(C(N)=O)cn2C2CC3C2)o1`, the Ki [1] was < 0.2 nM.
A Ki [1] of 62 nM and a Ki [2] of 634 nM were found for `CCOc1nc2ccc(C#C[C@](C)(O)c3ncc(C)o3)cc2n1-c1ccnc(N)n1` in this work.
A Ki [1] of 5.9 nM and a Ki [2] of 1 nM were found for `Cc1cc([C@](C)(O)C#Cc2cc3c(cc2F)C2CC(C2)n2cc(C(N)=O)nc2-3)no1` in this work.
With `Cc1cc([C@@](C)(O)C#Cc2ccc3c(c2)-c2nc(C(N)=O)cn2CCO3)no1` the Ki [1] was 14 nM and the Ki [2] was > 250 nM.
For `Cc1cc([C@](C)(O)C#Cc2cc3c(cc2F)C2CC(C2)n2c-3nc(C(N)=O)c2C2CC2)no1`, the Ki [1] was < 0.2 nM and the logD [6] was 3.7.
With `Cc1cnc(C(C)(C)C#Cc2ccc3c(c2)-c2nc(C(N)=O)c(C4CC4)n2C2CC3C2)o1` the inhibition [3] was > 40%, the Ki [1] was < 0.2 nM and the Ki [2] was > 1250 nM. The solubility kinetic [4] was 35 µM (≈ 14.9 µg/mL) and the logD [6] was 4.4.
A Ki [2] of 14 nM was found for `CNC(=O)c1c(C(N)=O)nc2n1C1CC(C1)c1cc(F)c(C#C[C@@](C)(O)c3cc(C)on3)cc1-2` in this work.
With `NC(=O)c1cn2c(n1)-c1cc(C#CC3CCCC3)ccc1C1CC2C1` the Ki [1] was 44 nM and the Ki [2] was > 1250 nM.
In the case of `Cc1cc([C@@](C)(O)C#Cc2ccc3c(c2)-c2nc(C(N)=O)c(C4CC4)n2CCO3)no1`, the Ki [1] is reported as < 0.2 nM, the Ki [2] is reported as ≥ 1250 nM and the solubility kinetic [4] is reported as 124 µM (≈ 51.9 µg/mL). For the same compound, the inhibition [9] was 7%, the inhibition [5] was 20% and the inhibition [10] was 1%. It also gave an inhibition [11] of 4%, a logD [6] of 2 and an inhibition [7] of 21%. For the same compound, the inhibition [8] was > 30%.
A Ki [1] of 4.2 nM was found for `Cc1cnc([C@@](C)(O)C#Cc2ccc3c(c2)-c2nc(C(N)=O)cn2C2CC3C2)o1` in this work.
A Ki [1] of 0.9 nM and a Ki [2] of 0.8 nM were found for `Cc1cc([C@](C)(O)C#Cc2ccc3c(c2)-c2nc(C(N)=O)cn2C2CC3C2)no1` in this work.
A Ki [1] of 3.6 nM and a Ki [2] of 0.16 nM were found for `CCOc1nc2ccc(C#C[C@@](C)(O)c3ncc(C)o3)cc2n1-c1ccnc(N)n1` in this work.
A Ki [1] of 4.9 nM and a Ki [2] of 3.1 nM were found for `Cc1cc([C@](C)(O)C#Cc2ccc3c(c2)-c2nc(C(N)=O)cn2CCO3)no1` in this work.
A Ki [1] of 65 nM and a Ki [2] of 582 nM were found for `Cc1cc([C@@](C)(O)C#Cc2ccc3c(c2)-c2nc(C(N)=O)cn2C2CC3C2)no1` in this work.
